The text below walks through data of ChEMBL document CHEMBL3301361, “Experimental in vitro DMPK and physicochemical data on a set of publicly disclosed compounds”.

The conditions of series [1]: human, plasma, 5 h.
Series [2] can be described thus: in vitro. The note with it: human, plasma, PPB.
Series [3] is described as follows: in vitro. As to conditions: mouse, plasma.
A short description of series [4]: physchem. As to conditions: octan-1-ol/water, pH 7.4, LogD7.4.
The conditions of series [5]: rat, plasma, 5 h.
Series [6] in a line: in vitro. The note with it: SD, HW or BN, rat, plasma.
The nature of series [7]: physchem.
A short description of series [8]: physchem. The source holds these as a separate data set.
Series [9] is described as follows: physchem. This is another data set of the same source.
Series [10] can be described thus: in vitro. As to conditions: Dunkin Hartley, guinea pig, plasma.
A short description of series [11]: physchem. The note with it: pH 7.4 buffer.
Series [12] can be described thus: in vitro. The note with it: Beagle, dog, plasma.
Series [13] in a line: in vitro. As to conditions: hepatocytes.
Series [14] is described as follows: in vitro. As to conditions: human, hepatocytes.
A short description of series [15]: ASTRAZENECA: Third most basic pKa value (pKa B3) determined by absorption and potentiometric titration using standard methodology from Sirius Analytical. Experimental range Bases: >= 2. The class given is physicochemical. The note with it: read-out: pKa_B3.
A short description of series [16]: physchem. The source holds these as a separate data set.
Series [17] in a line: in vitro. The note with it: human.
The conditions of series [18]: CD1, BC, CD1, NMRI, SCID, or Nd, rat, hepatocytes.
The conditions of series [19]: dog, plasma, 5 h.

As a reminder, the fraction unbound is the share of the substance not bound to proteins or other matrix. Lower therefore signals little free substance. For orientation: logD means lipophilicity at a set pH, counting ionised and neutral species. As a reminder, the thermodynamic solubility is the concentration in solution at equilibrium with solid. The hepatocyte CLint is a measure of how fast metabolising enzymes remove a compound, apart from limits set by blood flow. Lower therefore signals slow turnover. What is called microsomal CLint is the capacity of the preparation to metabolise the compound, expressed as a volume cleared per time.

Converted amounts (≈) assume the structure as drawn.

On to `Oc1nc(-c2ccc(C(F)(F)F)cc2)nc2c1CSCC2`, for which the PPB in series [1] was determined as 97.6%.
As for `Cc1ccc(-c2ccc3c(ccc4sc5c(c43)NC[C@@H](C)NC5=O)n2)cn1`, the unbound share (fraction unbound) at 5 h is 0.151 in the series “in vitro [2]” and 0.0229 in the series “in vitro [3]”. Besides, the logD in “physchem [4]” is 3.6. Further, the PPB in [5] amounted to 98.86%.
`CC1(C)[C@H](NC(=O)/C(=N\OCc2cc(=O)c(O)cn2O)c2csc(N)n2)C(=O)N1OS(=O)(=O)O` yielded a PPB in [1] of 69.12%. The fraction unbound at 5 h in the series “in vitro [6]” is 0.124.
In series [5], `O=C(NCc1cccnc1OCC(F)(F)F)c1cncc(-c2ccc(Cl)cc2)c1` gave a PPB of 99.87%.
`CON=C(C(=O)N[C@@H]1C(=O)N2C(C(=O)O)=C(COC(C)=O)CS[C@H]12)c1csc(N)n1`: the pKa in “physchem [7]” amounted to 3.35; in the series “physchem [8]”, 9.43; in “physchem [9]” it was 2.
Take `Cc1ccc(S(=O)(=O)Nc2c(C(=O)N[C@@H](C)C(C)(C)C)c(C)nn2-c2ccccc2)cc1`: the fraction unbound at 5 h in “in vitro [10]” is 0.0818; in “in vitro [12]”, 0.0321. In the series “physchem [11]”, the solubility (thermodynamic) came out at 1020 µM (≈ 465 µg/mL). Further, the PPB is 98.89% in series [1] and 95.82% in [5]. Further, in the series “physchem [4]”, the logD turned out to be 1.44.
Regarding `Cc1c(Sc2ccc(Cl)cc2)c2c(NS(C)(=O)=O)cccc2n1CC(=O)O`, the pKa was found to be 2.9 in the series “physchem [7]” and 10.2 in “physchem [8]”. The hepatocyte CLint in the series “in vitro [13]” was determined as 5 µL/min/1e6 cells; in “in vitro [14]” it was 4.76 µL/min/1e6 cells. In addition, the unbound share (fraction unbound) at 5 h in the series “in vitro [6]” is 0.0031; in the series “in vitro [2]” it was 0.0104. For the same compound, the log distribution coefficient (logD) in the series “physchem [4]” is 0.21.
For `COc1cc2nc(-c3ccc(N4CCN(C)CC4)cc3)nc(NCCN3CCOCC3)c2cc1OC`, the pKa amounted to 7.93 in the series “physchem [9]”, 5.6 in series [15] and 6.78 in “physchem [16]”.
For the compound `COc1cc(-n2cnc3cc(-c4ccc(Cl)cc4)sc3c2=O)ccc1OC[C@H](O)C1CC1`, the hepatocyte CLint in “in vitro [13]” turned out to be 9.77 µL/min/1e6 cells. Also, the fraction unbound at 5 h in “in vitro [12]” is 0.0014; in “in vitro [2]” it was 0.0021; in the series “in vitro [3]”, 0.0018. The compound further displayed a PPB in [5] of 98.81%.
For the compound `Fc1cccc(COc2ccc(Nc3ncnc4ccc(-c5cccc(N6CCOCC6)c5)cc34)cc2Cl)c1`, the microsomal CLint in “in vitro [17]” (microsomes) amounted to 63.1 µL/min/mg. The CLint in series [18] turned out to be 44.67 microL/min/1E6 cells. The logD in the series “physchem [4]” came out at 3.2.
As for `CN(C)CCNc1cc(-c2ccc(N3CCN(C)CC3)cc2)nc2ccccc12`, the pKa in “physchem [9]” came out at 8.94; in [15], 7.31; in the series “physchem [16]” it was 7.96.
In the case of `CCc1nc2cc(O)ccc2c(Oc2ccc(/C=C/C(=O)O)cc2)c1-c1ccccc1`, the pKa in the series “physchem [7]” was 4.34; in “physchem [8]”, 7.81; in the series “physchem [9]” it was 5.51. In “in vitro [2]”, the free fraction (fraction unbound) at 5 h is 0.0056. Besides, in “physchem [4]”, the logD is 3.
For `NCCc1ccc(O)c(O)c1F`, the pKa in “physchem [7]” amounted to 7.8; in “physchem [8]”, 10.3; in the series “physchem [9]”, 8.
The like results for `NCCc1ccc(O)c2nc(O)ccc12` were, in that order, 7.6, 10.2 and 7.7.
`O=C(NCCc1ccccc1Cl)c1cc(-n2ncc(=O)[nH]c2=O)ccc1Cl` returned a pKa in the series “physchem [7]” of 6.1. The PPB in [1] came to 97.2%. Also, the hepatocyte CLint in “in vitro [13]” is 8 µL/min/1e6 cells. The compound further had an unbound share (fraction unbound) at 5 h in the series “in vitro [6]” of 0.0224. In “physchem [4]”, the logD amounted to 1.29.
On to `CC1(C)S[C@@H]2[C@H](NC(=O)[C@H](N)c3ccc(O)cc3)C(=O)N2[C@H]1C(=O)O` [AMOXICILLIN], for which the pKa was 4.03 in “physchem [7]”, 9.77 in the series “physchem [8]” and 7.52 in “physchem [9]”.
`CCCCNc1cc(C(=O)O)cc(S(N)(=O)=O)c1Oc1ccccc1` [BUMETANIDE] displayed a microsomal CLint in the series “in vitro [17]” (microsomes) of 4 µL/min/mg. The pKa in “physchem [7]” was determined as 3.49; in “physchem [8]” it was 9.73; in the series “physchem [9]”, 6.07. For the same compound, in the series “physchem [11]”, the thermodynamic solubility came to 1450 µM (≈ 527 µg/mL). In the series “in vitro [13]”, this compound had a hepatocyte CLint of 145 µL/min/1e6 cells. Also, the values for the fraction unbound at 5 h in “in vitro [6]” and in “in vitro [2]” were 0.0366 and 0.0156, respectively. The logD in “physchem [4]” is -0.3.
Turning to `NCc1ccccc1CC(=O)N[C@@H]1C(=O)N2C(C(=O)O)=C(CSc3nnnn3CC(=O)O)CS[C@H]12` [CEFORANIDE], the pKa in the series “physchem [7]” came to 2.01; in “physchem [8]” it was 3.63; in the series “physchem [9]”, 8.88.
`Cc1ccc(-c2cc(C(F)(F)F)nn2-c2ccc(S(N)(=O)=O)cc2)cc1` [CELECOXIB]: in the series “physchem [11]”, the solubility (thermodynamic) came to 2.2 µM (≈ 0.839 µg/mL). The PPB in [1] is 98.94%. The compound further displayed a logD in the series “physchem [4]” of 3.42. The same compound came in with a hepatocyte CLint in the series “in vitro [14]” of 25.7 µL/min/1e6 cells.
In turn, `COc1ccc([C@@H]2Sc3ccccc3N(CCN(C)C)C(=O)[C@@H]2OC(C)=O)cc1.Cl` [DILTIAZEM HYDROCHLORIDE] yielded a PPB in series [1] of 35.46%.
As to `COc1ccc([C@@H]2Sc3ccccc3N(CCN(C)C)C(=O)[C@@H]2OC(C)=O)cc1` [DILTIAZEM], the microsomal CLint in “in vitro [17]” (liver microsomes) amounted to 43.6 µL/min/mg. The compound further registered a pKa in the series “physchem [9]” of 8.08. For the same compound, the PPB in series [1] is 75.97%. In addition, the results for the hepatocyte CLint in “in vitro [13]” and in the series “in vitro [14]” were > 150 µL/min/1e6 cells and 9.33 µL/min/1e6 cells, respectively. The compound further showed a fraction unbound at 5 h in “in vitro [12]” of 0.349. In “physchem [4]”, this compound gave a logD of 1.99.
On to `CCOc1ccc(-c2ccc(Cn3c(CC(C)(C)C(=O)O)c(SC(C)(C)C)c4cc(OCc5ccc(C)cn5)ccc43)cc2)cn1` [FIBOFLAPON], for which, in “in vitro [17]” (liver microsomes), the microsomal CLint worked out at 9.77 µL/min/mg. The compound also showed a PPB in [19] of 99.92%. This compound showed a hepatocyte CLint in “in vitro [13]” of 6.92 µL/min/1e6 cells.
`COCCCC/C(=N\OCCN)c1ccc(C(F)(F)F)cc1` [FLUVOXAMINE] had a PPB in series [1] of 75.55%.
In series [1], `Cc1ccc(C(=O)N(CCCN)[C@@H](c2nc3cc(Cl)ccc3c(=O)n2Cc2ccccc2)C(C)C)cc1` [ISPINESIB] came in with a PPB of 99.4%.
Turning to `CCCc1c2nc(C(=O)O)cc(NC)c2cc2c(=O)cc(C(=O)O)oc12` [MINOCROMIL], the pKa in the series “physchem [7]” is < 2; in “physchem [8]”, < 2; in the series “physchem [9]”, 8.8.
Take `OCCN1CCN(CCCN2c3ccccc3Sc3ccc(Cl)cc32)CC1` [PERPHENAZINE]: the PPB in series [1] is 98.51%. Further, the fraction unbound at 5 h in “in vitro [6]” is 0.0146.
As for `O=C(O)C[C@H](O)C[C@H](O)/C=C/c1c(C2CC2)nc2ccccc2c1-c1ccc(F)cc1` [PITAVASTATIN], the microsomal CLint in “in vitro [17]” (microsomes) was < 3 µL/min/mg. Besides, the fraction unbound at 5 h in “in vitro [12]” is 0.0293; in “in vitro [6]” it was 0.0064; in the series “in vitro [2]”, 0.02. This compound also showed a CLint in [18] of 7.11 microL/min/1E6 cells. Further, in “physchem [4]”, the pH-dependent lipophilicity (logD) is 0.91.
In “in vitro [17]” (liver microsomes), `O=C(c1ccc(OCCN2CCCCC2)cc1)c1c(-c2ccc(O)cc2)sc2cc(O)ccc12` [RALOXIFENE] showed a microsomal CLint of 21 µL/min/mg. The same compound registered a thermodynamic solubility in “physchem [11]” of 9.1 µM (≈ 4.31 µg/mL). The hepatocyte CLint in the series “in vitro [13]” was 30 µL/min/1e6 cells. For the same compound, the fraction unbound at 5 h in “in vitro [12]” was 0.0057; in the series “in vitro [2]”, 0.005. The same compound registered a logD in “physchem [4]” of 4.13. The same compound showed a PPB in series [5] (SD, HW or BN) of 99.5%.
In turn, `Nc1nc2ccc(OC(F)(F)F)cc2s1` [RILUZOLE] gave a PPB in series [1] of 97.13%.
`O=C(NC[C@H]1CN(c2ccc(N3CCOCC3=O)cc2)C(=O)O1)c1ccc(Cl)s1` [RIVAROXABAN]: the PPB in series [5] stood at 94.56%.
In the series “in vitro [17]” (microsomes), `O=C(Nc1c(Cl)cncc1Cl)c1ccc(OC(F)F)c(OCC2CC2)c1` [ROFLUMILAST] registered a microsomal CLint of 5 µL/min/mg. This compound also showed a thermodynamic solubility in “physchem [11]” of 1.1 µM (≈ 0.444 µg/mL). The same compound gave a PPB in [1] of 99.5%. Further, in the series “in vitro [13]”, the hepatocyte CLint is > 150 µL/min/1e6 cells. Besides, the free fraction (fraction unbound) at 5 h in “in vitro [6]” was 0.0114. This compound gave a logD in the series “physchem [4]” of 3.95.
`CSc1ccc2c(c1)N(CCC1CCCCN1C)c1ccccc1S2` (stereo not given) [THIORIDAZINE] came in with a microsomal CLint in “in vitro [17]” (microsomes) of 50 µL/min/mg. The hepatocyte CLint in the series “in vitro [13]” turned out to be 114 µL/min/1e6 cells. In the series “in vitro [2]”, this compound had a fraction unbound at 5 h of 0.0037. Further, the logD in “physchem [4]” came to 3.76. The compound also yielded a PPB in [5] of 99.3%.
As for `N#Cc1cc(-c2n[nH]c(-c3ccncc3)n2)ccn1` [TOPIROXOSTAT], the microsomal CLint in “in vitro [17]” (liver microsomes) turned out to be 5 µL/min/mg. The compound also came in with a PPB in series [1] of 84.9%. Besides, the hepatocyte CLint in “in vitro [13]” was < 3 µL/min/1e6 cells.
